Test results reported in the supplement of paper PMC6045584.
± gives the standard deviation of the averaged measurements.

What was measured:
TEMOZOLOMIDE = compound: Cn1nnc2c(C(N)=O)ncn2c1=O [TEMOZOLOMIDE]; assay: surviving fraction relative to DMSO-only wells; higher = less growth inhibition; details: exposure time: 5 days
How it was run: (§1)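 Inhibitors were tested at 0.5, 1, 5, 10, 50, 100, 500 and 1000 nM, applied continuously for five days beginning 24 hours after log-phase tumour cells were seeded at 250–500 per well in 384-well plates. CellTiter-Glo luminescence served as the viability measure, expressed as surviving fraction against the median of DMSO-only wells. Each line, screened three times, was kept only with replicate Pearson r >0.7 and median Z' >0.3.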

SORAFENIB = compound: CNC(=O)c1cc(Oc2ccc(NC(=O)Nc3ccc(Cl)c(C(F)(F)F)c3)cc2)ccn1 [SORAFENIB]; assay: as above; details: exposure time: 5 days
How it was run: as §1

Test System	surviving fraction (TEMOZOLOMIDE; 0.5 nM)	surviving fraction (TEMOZOLOMIDE; 1 nM)	surviving fraction (TEMOZOLOMIDE; 5 nM)	surviving fraction (TEMOZOLOMIDE; 10 nM)	surviving fraction (TEMOZOLOMIDE; 50 nM)	surviving fraction (TEMOZOLOMIDE; 100 nM)	surviving fraction (TEMOZOLOMIDE; 500 nM)	surviving fraction (TEMOZOLOMIDE; 1000 nM)	surviving fraction (SORAFENIB; 0.5 nM)	surviving fraction (SORAFENIB; 1 nM)	surviving fraction (SORAFENIB; 5 nM)	surviving fraction (SORAFENIB; 10 nM)	surviving fraction (SORAFENIB; 50 nM)	surviving fraction (SORAFENIB; 100 nM)	surviving fraction (SORAFENIB; 500 nM)	surviving fraction (SORAFENIB; 1000 nM)
RDES SOFT TISSUE	1.11 ± 0.033	1.2 ± 0.06	1.14 ± 0.088	1.02 ± 0.12	1.15 ± 0.13	1.3 ± 0.14	1.27 ± 0.15	1.34 ± 0.17	1.24 ± 0.085	1.12 ± 0.098	1.18 ± 0.1	0.918 ± 0.1	1.15 ± 0.058	1.24 ± 0.066	1.18 ± 0.13	1.09 ± 0.1
S68 BREAST	0.996 ± 0.22	1.07 ± 0.034	1.08 ± 0.18	1.06 ± 0.12	1.04 ± 0.044	1.09 ± 0.25	1.05 ± 0.078	1.29 ± 0.24		0.963 ± 0.22	1.06 ± 0.083	1.13 ± 0.18	1.29 ± 0.099	1.12 ± 0.27	1.02 ± 0.079	0.895 ± 0.32
SAOS2 BONE	1.1 ± 0.026	1.12 ± 0.099	1.25 ± 0.047	1.2 ± 0.05	1.2 ± 0.13	1.23 ± 0.081	1.16 ± 0.063	1.18 ± 0.14	0.935 ± 0.028	1.019 ± 0.0098	1.072 ± 0.0081	1.04 ± 0.064	1.17 ± 0.017	1.237 ± 0.0023	1.196 ± 0.01	1.07 ± 0.079
SCC003 HEADNECK	1.05 ± 0.077	1.04 ± 0.059	1.08 ± 0.072	1.15 ± 0.073	1.06 ± 0.034	1.1 ± 0.071	1.07 ± 0.057	1.09 ± 0.036	0.898 ± 0.11	1.05 ± 0.12			1.12 ± 0.18	1.11 ± 0.081	1.24 ± 0.097	
SCC36 HEADNECK	1.04 ± 0.065	1.08 ± 0.088	1.19 ± 0.11	1.14 ± 0.069	1.07 ± 0.056	1.08 ± 0.14	1.11 ± 0.1	1.05 ± 0.078		1.02 ± 0.064	1.15 ± 0.11	1.18 ± 0.018	1.18 ± 0.16	1.17 ± 0.056	1.2 ± 0.049	1.18 ± 0.065
SCC47 HEADNECK	0.956 ± 0.035	1.06 ± 0.074	1.1 ± 0.035	1.12 ± 0.085	1.04 ± 0.11	1.22 ± 0.14	1.1 ± 0.06	1.14 ± 0.17	1.04 ± 0.067	0.998 ± 0.071	1.08 ± 0.029	0.974 ± 0.067	1 ± 0.053	1.01 ± 0.068	0.907 ± 0.065	0.825 ± 0.028
SCC90 HEADNECK	0.973 ± 0.039	1.16 ± 0.11	1.05 ± 0.053	1.02 ± 0.062	1.08 ± 0.073	1.06 ± 0.2	1.1 ± 0.088	1.01 ± 0.057	1.16 ± 0.083	1.23 ± 0.13	1.37 ± 0.12	1.3 ± 0.097		0.797 ± 0.076	1.01 ± 0.083	1.12 ± 0.069
SG27 HEADNECK	1.13 ± 0.058	1.1 ± 0.11	1.02 ± 0.054	1.09 ± 0.019	1.04 ± 0.061	1.16 ± 0.14	1.22 ± 0.048	1.21 ± 0.15	1.04 ± 0.056	1.01 ± 0.059	1.18 ± 0.041	1.13 ± 0.074	1.03 ± 0.04	1.22 ± 0.1	1.27 ± 0.045	1.3 ± 0.051
SG28 HEADNECK	1.03 ± 0.044	1.18 ± 0.034	1.04 ± 0.013	1.1 ± 0.021	1.1 ± 0.087	1.05 ± 0.013	1.09 ± 0.14	1.09 ± 0.048	1.17 ± 0.13		1.18 ± 0.1	1.22 ± 0.18	1.21 ± 0.066	1.27 ± 0.1	1.44 ± 0.19	1.32 ± 0.14
